Measured values published in ChEMBL document CHEMBL5678809, “Preclinical characterization of GLPG0634, a selective inhibitor of JAK1, for the treatment of inflammatory diseases” (J Immunol, 2013).
pIC50: −log10 of the molar value. Calls of active or inactive are those of the source. The calls are words filed in the database; no cut-off is given here.

Tests used:
[1] = target: Receptor-type tyrosine-protein kinase FLT3 (Homo sapiens, UniProt P36888); assay: Inhibition of Flt3 (unknown origin)
[2] = target: G protein-coupled receptor kinase 5 (Homo sapiens) (UniProt P34947); assay: Inhibition of GRK5 (unknown origin) at 1 uM relative to control
[3] = target: Serine/threonine-protein kinase PAK 4 (Homo sapiens) (UniProt O96013); assay: Inhibition of PAK4 (unknown origin) at 1 uM relative to control
[4] = target: Platelet-derived growth factor receptor alpha (Homo sapiens) (UniProt P16234); assay: Inhibition of PDGFR2 (unknown origin) at 1 uM relative to control
[5] = target: Macrophage colony-stimulating factor 1 receptor (Homo sapiens, UniProt P07333); assay: Inhibition of FMS (unknown origin)
[6] = organism: Homo sapiens; assay: Inhibition of PDGFR (unknown origin) at 1 uM relative to control
[7] = tested on: Mus musculus; assay: Antiarthritic activity against collagen-induced arthritis DBA/1J mouse model assessed as M-CSF1 level in serum at 50 mg/kg, po measured for 4 hrs by luminex analysis (reference value: 11.1 +/- 1.3 ng/ml); format: functional
[8] = AUC (0 to 24 hrs) in CD-1 mouse at 5 mg/kg, po measured upto 24 hrs by LC-MS analysis; format: ADME, organism-based; conditions: in vivo
[9] = target: Activated CDC42 kinase 1 (Homo sapiens) (UniProt Q07912); assay: Inhibition of ACK1 (unknown origin) at 1 uM relative to control
[10] = tested on: Mus musculus; assay: Antiarthritic activity against collagen-induced arthritis DBA/1J mouse model assessed as reduction in TNFalpha expression at 50 mg/kg, po measured for 4 hrs; format: functional, organism-based
[11] = target: SRSF protein kinase 2 (Homo sapiens) (UniProt P78362); assay: Inhibition of SRPK2 (unknown origin) at 1 uM relative to control
[12] = tested on: Mus musculus; assay: Antiarthritic activity against collagen-induced arthritis DBA/1J mouse model assessed as reduction in IP-10 level in serum at 50 mg/kg, po measured for 4 hrs by luminex analysis; format: functional, organism-based
[13] = tested on: Mus musculus; assay: Antiarthritic activity against collagen-induced arthritis DBA/1J mouse model assessed as reduction in infiltration of CD3 positive T cells in paw at 50 mg/kg, po administered twice daily for 14 days by immunohistochemistry analysis; format: functional, organism-based; conditions: T-cell, time 14.0 day
[14] = target: Testis-specific serine/threonine-protein kinase 1 (Homo sapiens) (UniProt Q9BXA7); assay: Inhibition of TSSK1 (unknown origin) at 1 uM relative to control
[15] = target: Mitogen-activated protein kinase 11 (Homo sapiens) (UniProt Q15759); assay: Inhibition of SAPK2b (unknown origin) at 1 uM relative to control
[16] = target: Rhodopsin kinase GRK7 (Homo sapiens) (UniProt Q8WTQ7); assay: Inhibition of GRK7 (unknown origin) at 1 uM relative to control
[17] = target: SRSF protein kinase 1 (Homo sapiens) (UniProt Q96SB4); assay: Inhibition of SRPK1 (unknown origin) at 1 uM relative to control
[18] = Clearance in Sprague-Dawley rat at 1 mg/kg, iv measured upto 8 hrs by LC-MS analysis; format: ADME, organism-based; conditions: in vivo
[19] = tested on: RPMI-8226; assay: Inhibition of human […] cell differentiation assessed as effect on IL-4 mRNA expression by RT-PCR analysis; format: functional, cell-based; conditions: dose 0.1-10 µM
[20] = target: Proto-oncogene tyrosine-protein kinase receptor Ret (Homo sapiens) (UniProt P07949); assay: Inhibition of Ret (unknown origin) at 1 uM relative to control
[21] = tested on: Rattus norvegicus; assay: In vivo inhibition of JAK1 in Sprague-Dawley rat assessed as reduction in MX2 mRNA level at 1 to 10 mg/kg, po measured for 24 hrs by RT-PCR analysis; format: functional, organism-based; conditions: dose 1-10 mg/kg
[22] = target: Protein-tyrosine kinase 6 (Homo sapiens) (UniProt Q13882); assay: Inhibition of BRK (unknown origin) at 1 uM relative to control
[23] = organism: Homo sapiens; assay: Inhibition of PKB (unknown origin) at 1 uM relative to control
[24] = target: MAP kinase-activated protein kinase 2 (Homo sapiens) (UniProt P49137); assay: Inhibition of MAPK2 (unknown origin) at 1 uM relative to control
[25] = target: Serine/threonine-protein kinase PAK 6 (Homo sapiens, UniProt Q9NQU5); assay: Inhibition of PAK6 (unknown origin)
[26] = target: Mitogen-activated protein kinase kinase kinase 7 (Homo sapiens, UniProt O43318); assay: Inhibition of TAK1 (unknown origin)
[27] = target: Tyrosine-protein kinase ABL1 (Homo sapiens, UniProt P00519); assay: Inhibition of ABL (unknown origin)
[28] = target: Ephrin type-A receptor 5 (Homo sapiens, UniProt P54756); assay: Inhibition of EPHA5 (unknown origin)
[29] = target: Ribosomal protein S6 kinase alpha-1 (Homo sapiens) (UniProt Q15418); assay: Inhibition of Rsk1 (unknown origin) at 1 uM relative to control
[30] = target: Vascular endothelial growth factor receptor 2 (Homo sapiens) (UniProt P35968); assay: Inhibition of KDR (unknown origin) at 1 uM relative to control
[31] = target: Serine/threonine-protein kinase Sgk2 (Homo sapiens) (UniProt Q9HBY8); assay: Inhibition of SGK2 (unknown origin) at 1 uM relative to control
[32] = Cmax in Sprague-Dawley rat at 1 mg/kg, iv measured upto 8 hrs by LC-MS analysis; format: ADME, organism-based; conditions: in vivo
[33] = target: Receptor-type tyrosine-protein kinase FLT3 (Homo sapiens) (UniProt P36888); assay: Inhibition of Flt3 (unknown origin) at 1 uM relative to control
[34] = target: Tyrosine-protein kinase Lck (Homo sapiens, UniProt P06239); assay: Inhibition of LCK (unknown origin)
[35] = target: Muscle, skeletal receptor tyrosine-protein kinase (Homo sapiens) (UniProt O15146); assay: Inhibition of MuSK (unknown origin) at 1 uM relative to control
[36] = tested on: Mus musculus; assay: Antiarthritic activity against collagen-induced arthritis DBA/1J mouse model assessed as reduction in Mx1 expression in paw at 50 mg/kg, po measured for 2 weeks by RT-PCR analysis; format: functional, organism-based
[37] = target: Protein-tyrosine kinase 2-beta (Homo sapiens) (UniProt Q14289); assay: Inhibition of Pyk2 (unknown origin) at 1 uM relative to control
[38] = target: Serine/threonine-protein kinase MARK2 (Homo sapiens) (UniProt Q7KZI7); assay: Inhibition of PAR-1B (unknown origin) at 1 uM relative to control
[39] = target: PAS domain-containing serine/threonine-protein kinase (Homo sapiens) (UniProt Q96RG2); assay: Inhibition of PASK (unknown origin) at 1 uM relative to control
[40] = target: Dual specificity mitogen-activated protein kinase kinase 7 (Homo sapiens) (UniProt O14733); assay: Inhibition of MKK7 (unknown origin) at 1 uM relative to control

Tyrosine-protein kinase Lck, sequence (P06239 whole entry): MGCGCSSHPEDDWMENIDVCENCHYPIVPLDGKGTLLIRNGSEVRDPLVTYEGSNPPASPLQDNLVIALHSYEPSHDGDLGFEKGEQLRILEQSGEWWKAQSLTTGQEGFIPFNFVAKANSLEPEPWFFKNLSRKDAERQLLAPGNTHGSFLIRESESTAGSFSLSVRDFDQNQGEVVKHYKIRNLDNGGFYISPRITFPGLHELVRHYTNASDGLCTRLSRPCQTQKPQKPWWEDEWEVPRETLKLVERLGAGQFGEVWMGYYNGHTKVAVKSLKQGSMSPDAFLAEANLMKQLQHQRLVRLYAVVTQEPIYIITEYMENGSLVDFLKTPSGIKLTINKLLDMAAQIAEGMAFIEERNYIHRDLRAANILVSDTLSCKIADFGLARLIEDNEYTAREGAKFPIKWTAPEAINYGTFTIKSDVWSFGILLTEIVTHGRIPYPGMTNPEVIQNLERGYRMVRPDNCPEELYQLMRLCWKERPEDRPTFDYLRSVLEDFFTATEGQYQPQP
Testis-specific serine/threonine-protein kinase 1 (Homo sapiens), sequence (Q9BXA7 whole entry): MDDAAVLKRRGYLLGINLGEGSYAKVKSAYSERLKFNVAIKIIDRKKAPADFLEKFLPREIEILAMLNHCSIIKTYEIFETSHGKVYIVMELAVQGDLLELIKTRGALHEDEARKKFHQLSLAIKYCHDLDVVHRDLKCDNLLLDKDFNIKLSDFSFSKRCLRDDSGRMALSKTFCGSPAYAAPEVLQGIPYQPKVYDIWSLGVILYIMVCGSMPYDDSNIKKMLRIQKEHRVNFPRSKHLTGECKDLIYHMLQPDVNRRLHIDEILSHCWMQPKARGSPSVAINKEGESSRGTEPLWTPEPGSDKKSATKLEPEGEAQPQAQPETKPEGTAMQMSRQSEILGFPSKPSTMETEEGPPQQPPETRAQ
Macrophage colony-stimulating factor 1 receptor, sequence (P07333 whole entry): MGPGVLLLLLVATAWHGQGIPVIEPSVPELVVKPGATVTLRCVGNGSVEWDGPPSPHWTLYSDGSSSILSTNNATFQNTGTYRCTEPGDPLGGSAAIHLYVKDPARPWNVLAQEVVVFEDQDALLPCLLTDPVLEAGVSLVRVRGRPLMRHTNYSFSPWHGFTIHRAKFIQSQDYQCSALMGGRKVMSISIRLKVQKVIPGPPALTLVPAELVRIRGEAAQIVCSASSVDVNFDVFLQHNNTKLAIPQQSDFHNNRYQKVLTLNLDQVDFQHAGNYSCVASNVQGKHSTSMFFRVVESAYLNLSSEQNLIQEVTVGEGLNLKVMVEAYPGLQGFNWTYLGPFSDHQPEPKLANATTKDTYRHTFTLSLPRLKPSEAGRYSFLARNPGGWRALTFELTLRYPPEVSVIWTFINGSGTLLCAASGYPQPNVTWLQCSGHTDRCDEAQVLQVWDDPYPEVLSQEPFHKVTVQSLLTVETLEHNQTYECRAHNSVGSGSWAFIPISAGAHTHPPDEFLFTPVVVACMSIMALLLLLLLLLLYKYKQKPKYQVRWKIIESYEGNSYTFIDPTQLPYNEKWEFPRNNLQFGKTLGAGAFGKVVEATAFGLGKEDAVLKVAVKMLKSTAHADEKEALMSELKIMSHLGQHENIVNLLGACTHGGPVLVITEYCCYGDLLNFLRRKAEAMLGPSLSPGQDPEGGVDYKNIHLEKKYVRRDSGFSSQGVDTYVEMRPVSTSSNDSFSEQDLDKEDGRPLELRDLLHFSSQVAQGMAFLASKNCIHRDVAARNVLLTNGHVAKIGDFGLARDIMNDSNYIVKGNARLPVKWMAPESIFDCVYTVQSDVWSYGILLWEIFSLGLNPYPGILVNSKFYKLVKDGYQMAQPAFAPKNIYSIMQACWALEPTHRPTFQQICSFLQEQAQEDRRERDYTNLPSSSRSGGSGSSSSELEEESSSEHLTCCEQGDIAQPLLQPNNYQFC
MAP kinase-activated protein kinase 2 (Homo sapiens), sequence (P49137 whole entry, looked up): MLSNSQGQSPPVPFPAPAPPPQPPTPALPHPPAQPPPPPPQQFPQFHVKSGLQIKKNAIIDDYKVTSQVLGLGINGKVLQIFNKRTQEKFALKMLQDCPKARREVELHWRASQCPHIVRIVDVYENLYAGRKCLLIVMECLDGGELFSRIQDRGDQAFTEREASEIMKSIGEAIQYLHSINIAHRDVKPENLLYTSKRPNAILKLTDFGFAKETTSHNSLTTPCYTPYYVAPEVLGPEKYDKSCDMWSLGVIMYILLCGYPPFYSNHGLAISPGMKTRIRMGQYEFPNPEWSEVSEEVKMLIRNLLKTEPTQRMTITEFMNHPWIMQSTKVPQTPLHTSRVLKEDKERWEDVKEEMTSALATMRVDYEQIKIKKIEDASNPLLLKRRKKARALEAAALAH
Receptor-type tyrosine-protein kinase FLT3, sequence (P36888 whole entry): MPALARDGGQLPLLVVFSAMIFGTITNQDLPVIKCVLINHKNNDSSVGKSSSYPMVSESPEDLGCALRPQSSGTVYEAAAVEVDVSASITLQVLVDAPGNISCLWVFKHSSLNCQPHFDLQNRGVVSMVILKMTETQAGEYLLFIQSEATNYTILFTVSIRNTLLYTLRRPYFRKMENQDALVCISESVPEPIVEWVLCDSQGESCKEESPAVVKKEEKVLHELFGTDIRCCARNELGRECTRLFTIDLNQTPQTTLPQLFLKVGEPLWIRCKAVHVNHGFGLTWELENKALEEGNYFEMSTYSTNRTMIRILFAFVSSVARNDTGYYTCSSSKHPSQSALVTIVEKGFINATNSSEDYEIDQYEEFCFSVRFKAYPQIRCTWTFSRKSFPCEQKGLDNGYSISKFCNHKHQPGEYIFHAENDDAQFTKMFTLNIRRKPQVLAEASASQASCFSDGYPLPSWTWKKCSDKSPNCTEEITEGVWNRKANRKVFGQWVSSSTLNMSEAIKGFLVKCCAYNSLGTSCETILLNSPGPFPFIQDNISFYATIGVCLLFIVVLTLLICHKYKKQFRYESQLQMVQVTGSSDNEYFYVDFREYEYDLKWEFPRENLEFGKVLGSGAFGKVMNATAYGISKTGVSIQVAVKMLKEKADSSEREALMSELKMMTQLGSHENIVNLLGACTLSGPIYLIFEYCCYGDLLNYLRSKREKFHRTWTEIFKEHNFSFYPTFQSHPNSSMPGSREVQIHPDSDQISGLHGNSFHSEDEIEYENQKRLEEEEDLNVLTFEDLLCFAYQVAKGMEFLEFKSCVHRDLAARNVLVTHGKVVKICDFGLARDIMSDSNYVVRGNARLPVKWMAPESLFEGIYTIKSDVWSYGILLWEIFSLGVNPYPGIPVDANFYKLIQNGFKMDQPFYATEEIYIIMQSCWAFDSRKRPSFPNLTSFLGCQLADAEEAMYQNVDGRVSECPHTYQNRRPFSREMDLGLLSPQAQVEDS
Receptor-type tyrosine-protein kinase FLT3 (Homo sapiens), sequence (P36888 whole entry): as above
Protein-tyrosine kinase 2-beta (Homo sapiens), sequence (Q14289 whole entry, looked up): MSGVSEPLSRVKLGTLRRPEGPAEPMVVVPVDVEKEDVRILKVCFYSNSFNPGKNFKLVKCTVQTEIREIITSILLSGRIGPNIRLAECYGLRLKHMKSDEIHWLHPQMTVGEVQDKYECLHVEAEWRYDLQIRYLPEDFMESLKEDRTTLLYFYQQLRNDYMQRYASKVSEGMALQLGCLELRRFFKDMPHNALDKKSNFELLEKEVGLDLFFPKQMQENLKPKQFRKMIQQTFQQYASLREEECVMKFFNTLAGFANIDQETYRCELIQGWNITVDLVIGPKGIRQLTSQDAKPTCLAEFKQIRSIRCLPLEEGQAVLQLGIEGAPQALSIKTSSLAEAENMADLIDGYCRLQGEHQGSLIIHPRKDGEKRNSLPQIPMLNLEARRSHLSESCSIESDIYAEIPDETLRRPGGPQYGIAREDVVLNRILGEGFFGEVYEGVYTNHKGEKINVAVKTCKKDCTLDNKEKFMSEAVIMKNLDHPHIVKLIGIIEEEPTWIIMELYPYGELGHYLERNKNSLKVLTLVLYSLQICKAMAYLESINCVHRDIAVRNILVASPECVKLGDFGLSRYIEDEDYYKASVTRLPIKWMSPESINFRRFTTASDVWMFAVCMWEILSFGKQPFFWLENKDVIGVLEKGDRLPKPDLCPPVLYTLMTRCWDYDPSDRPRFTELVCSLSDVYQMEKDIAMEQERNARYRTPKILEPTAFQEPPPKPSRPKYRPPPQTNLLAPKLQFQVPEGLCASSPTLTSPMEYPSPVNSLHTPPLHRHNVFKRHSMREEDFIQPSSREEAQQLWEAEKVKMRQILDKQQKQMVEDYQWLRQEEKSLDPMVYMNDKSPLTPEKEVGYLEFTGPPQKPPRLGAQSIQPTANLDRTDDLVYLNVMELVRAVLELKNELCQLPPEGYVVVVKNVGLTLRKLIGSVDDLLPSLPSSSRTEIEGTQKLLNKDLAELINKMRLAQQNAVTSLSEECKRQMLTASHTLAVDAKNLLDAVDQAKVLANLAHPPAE
Mitogen-activated protein kinase kinase kinase 7, sequence (O43318 whole entry): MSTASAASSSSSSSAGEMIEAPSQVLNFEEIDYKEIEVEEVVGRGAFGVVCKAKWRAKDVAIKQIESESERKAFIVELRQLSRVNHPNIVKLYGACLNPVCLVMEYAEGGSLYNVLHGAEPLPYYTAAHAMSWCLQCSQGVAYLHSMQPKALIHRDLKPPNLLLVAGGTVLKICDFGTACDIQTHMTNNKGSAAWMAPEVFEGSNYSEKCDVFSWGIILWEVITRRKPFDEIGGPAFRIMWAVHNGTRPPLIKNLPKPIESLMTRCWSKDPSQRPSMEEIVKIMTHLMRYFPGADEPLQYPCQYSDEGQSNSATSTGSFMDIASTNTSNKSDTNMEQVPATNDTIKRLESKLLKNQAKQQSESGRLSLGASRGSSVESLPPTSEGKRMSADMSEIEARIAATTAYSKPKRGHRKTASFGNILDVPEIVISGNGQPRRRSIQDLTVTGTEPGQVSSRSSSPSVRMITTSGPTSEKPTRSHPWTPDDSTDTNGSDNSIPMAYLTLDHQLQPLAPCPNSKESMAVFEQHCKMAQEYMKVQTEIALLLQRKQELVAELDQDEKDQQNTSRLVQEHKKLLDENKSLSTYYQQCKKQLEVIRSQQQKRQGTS

Work on `O=C(Nc1nc2cccc(-c3ccc(CN4CCS(=O)(=O)CC4)cc3)n2n1)C1CC1` [FILGOTINIB] yielded a pIC50 [1] of 6.47, an inhibition [2] of -10% and an inhibition [3] of 0%. For the same molecule, the inhibition [4] was -10%, the pIC50 [5] was 6.31 and the inhibition [6] was 2%. The Activity [7] was 7.8 ng/mL, the AUC [8] was 1890 ng·h/mL and the inhibition [9] was 17%. The Activity [10] was “Active”, the inhibition [11] was -10% and the Activity [12] was “Active”. For the same molecule, the Activity [13] was “Active”, the inhibition [14] was 5% and the inhibition [15] was -4%. It also gave an inhibition [16] of -8%, an inhibition [17] of 4% and a clearance [18] of 23.3 mL/min/kg. For the same molecule, the inhibition [19] was “Dose-Dependent Effect”, the inhibition [20] was 9% and the inhibition [21] was “Active”. The inhibition [22] was -2%, the inhibition [23] was -3% and the inhibition [24] was 0%. For the same molecule, the pIC50 [25] was under 5.00, the pIC50 [26] was under 5.00 and the pIC50 [27] was 5.64. It also gave a pIC50 [28] of under 5.00, an inhibition [29] of 2% and an inhibition [30] of 28%. For the same molecule, the inhibition [31] was -4%, the Cmax [32] was 1410 ng/mL and the inhibition [33] was 58%. For the same molecule, the pIC50 [34] was under 5.00, the inhibition [35] was -3% and the Activity [36] was “Active”. For the same molecule, the inhibition [37] was -8%, the inhibition [38] was -7% and the inhibition [39] was 1%. It also gave an inhibition [40] of 13%.
